# Experimental data from patent publication US20230263817A1, “HIGH DOSE NICOTINAMIDE ADENINE DINUCLEOTIDE (NAD) PRECURSOR REGIMENS FOR REDUCTION OF INFLAMMATION IN HUMAN PATIENTS WITH PREEXISTING INFLAMMATION” (University of Washington, priority 2021, published 2023).
# Entries after “also recorded” stand apart in the source; their conditions may differ.
# Legend:
# [1] = tested on: secreted IL6 protein of healthy PBMC; experiment: IL6 ELISA of supernatant of cultured healthy PBMCs; assay type: cell-based, human; details: 4-hour 1 mM NR in the presence of MitoDAMP
# Method: (§1) IL6 ELISA. Isolated PBMCs (4×10^6 cells per sample) from healthy or HF participants were resuspended in RPMI medium containing 10% heat-inactivated FBS and treated with various proinflammatory triggers (Vehicle, MitoDAMP, LPS) and compounds (NR, MCC 950, MitoTempo, or LMT-28) to final PBMC concentrations of 10×10^6 cells per mL. See below for detailed descriptions of the reagents. The samples were incubated in Eppendorf tubes at 37° C. in a 5% CO2 incubator with caps open for times designated in the brief description of drawings. The cultured PBMC samples were centrifuged at 8,000 RPM at room temperature. The supernatant was used for ELISA per the manufacture protocol using R&D Systems human IL6 kit (Cat #DY206-05). The cell pellets were stored in −80° C.
# [2] = tested on: peripheral blood mononuclear cells (PBMCs); experiment: Randomized trial of NR in HFrEF: PBMC mitochondrial respiration; assay type: in vivo, human; details: Week 12 vs Week 0, NR group
# Method: Peripheral Blood Mononuclear Cell (PBMC) Mitochondrial Function. PBMCs were isolated from freshly-collected whole blood by centrifugation in Sepmate™-50 PBMC isolation tubes (STEMCELL Technologies, Vancouver, BC, Canada; Cat. 85450). Isolated PBMCs were resuspended in Seahorse XF® medium (Agilent, Cat. 102353-100) and then plated (10^6 cells/well) onto Seahorse® (Agilent) 24-well plates. PBMC mitochondrial respiratory function was assessed by measuring the oxygen consumption rate (OCR) at baseline and maximal stimulated conditions as described in Zhou B, et al. (J Clin Invest. 2020, 130:6054-6063 (Experimental Example 1)). Exploratory Endpoints. The following endpoints were considered exploratory, as the Study was underpowered to detect differences.
# [3] = Randomized trial of NR in HFrEF: whole blood NR and NAD+ levels; assay type: in vivo, human
# Method: At Week 0 (Randomization), participants underwent history, repeat 6MWD assessment and baseline transthoracic echocardiogram (FIG. 15). NR or matching placebo were started at the initial dose of 250 mg orally twice daily, then up-titrated by 250 mg twice daily each week to a final dose of 1000 mg twice daily by Week 3. Participants were continued on the 1000 mg twice daily dose until the final clinic visit on Week 12. Blood draws for study labs, including levels of NR and NAD were obtained at Weeks 0, 2, 4 and 12. Medications were dispensed at Weeks 0, 2, 4 and 8, with pill counts performed at Weeks 2, 4, 8 and 12. A telephone visit was performed at Week 6. The final echocardiogram and PBMC mitochondrial respiration assays were performed at Week 12. Study labs were performed by the UW Research Testing Service, except for NR and NAD+ assays, which were performed by the Pharmacokinetics Laboratory, Department of Pharmaceutics, UW School of Pharmacy. Procedures for blood collection and processing, as well as NR and NAD+ assay procedures, have been described previously (Airhart S E, et al., PLoS One. 2017, 12:e0186459).
# [4] = tested on: NLRP3 and pro-inflammatory cytokine (IL1β, IL6, IL18, TNFα) mRNA in healthy PBMCs; experiment: RT-qPCR of NLRP3 and pro-inflammatory cytokine mRNA in healthy PBMCs treated in vitro; assay type: cell-based, human
# Method: PBMC and Monocyte Culture. Freshly isolated PBMCs or Monocytes from healthy or HF subjects were resuspended with RPMI medium plus 10% heat inactivated FBS. PBMCs (10^6 cells/well) were seeded in Seahorse 24-well plates and incubated at 37° C. in CO2 incubator with various proinflammatory triggers (Vehicle, MitoDAMP, LPS) and compounds (NR, MCC 950, MitoTempo, or LMT-28). After 4 hours incubation, the plate was centrifuged at 40 g for 10 minutes at room temperature without application of the brake to help cells attach to the bottom of the plate. The cells were washed twice and then brought up to 500 μL using Seahorse base medium (Agilent Technologies, supplemented with 1 mM pyruvate, 2 mM glutamine, and 10 mM glucose, pH 7.4).
# as §1
# (§2) RNA Isolation and Quantitative PCR analysis. Total RNA was isolated from frozen PBMC pellets using Trizol (Invitrogen) per the manufacturer's instructions, and cDNA was synthesized using iScript™ Reverse Transcription Supermix (Bio-rad) per the manufacturer's instructions. Real-time PCR was performed in the Corbett rotor gene 6000 real-time PCR machine using iQ™ SYBR® Green Supermix (Bio-rad) and expression levels of the indicated genes were calculated using the ΔΔCt method.
# [5] = Whole blood NAD+ in Stage D HF patients on oral NR for 5-9 days; assay type: in vivo, human; details: oral NR up to 1000 mg twice a day, post vs pre
# Method: (§3) For experiments associated with the oral NR administration (FIGS. 12C-12F), 5 hospitalized Stage D HF patients undergoing advanced heart failure therapy evaluations were put on escalating doses of NR (250 mg twice a day for Day 1, 500 mg twice a day for Day 2, and 1000 mg twice a day from Day 3 on) for 5-9 days. Fasting blood samples were obtained for PBMC isolation at baseline and post-NR administration. Subject 5 was withdrawn due to a change in clinical course deemed to be independent from NR administration.
# Whole bloodNAD^+ assays. These were performed as previously described (Airhart S E, et al., PLoS One. 2017, 12(12):e0186459). Briefly, 50 μL of thawed blood samples were added to tubes containing 1 μg BMP as the internal standard and immediately followed by 300 μL of 4% trichloroacetic acid to precipitate proteins. Calibration standards were similarly prepared except that the matrix was 30 mg/mL BSA spiked with NAD^+ and NMN that had been dissolved in methanol. After protein precipitation and high-speed centrifugation, the supernatants were loaded onto Costar Spin-X 0.22 μm spin filters and subject to high speed centrifugation again. The eluates were injected onto an Agilent 1100 series high performance liquid chromatograph coupled to an Agilent G1956B single-quadrupole mass spectrometer. The mass spectrometer was operated in electrospray ionization mode with positive polarity.
# [6] = tested on: NLRP3 and cytokines mRNA of PBMC of Stage D HF subjects; experiment: PBMC NLRP3 and cytokine mRNA of Stage D HF patients pre- and post-oral NR; assay type: in vivo, human; details: oral NR 5-9 days, post vs pre
# Method: as §3, §2
# [7] = Adverse effects of oral NR in Stage D HF patients; assay type: in vivo, human; details: oral NR 5-9 days, 5 participants
# Method: as §3
smiles,measurement,setting,value
"NC(=O)c1ccc[n+]([C@@H]2O[C@H](CO)[C@@H](O)[C@H]2O)c1 [NR, nicotinamide riboside]",IL6 secretion,[1],reduction
same,baseline (basal) PBMC mitochondrial respiration rates,[2],not changed
same,maximal PBMC respiration,[2]; did not reach statistical significance,marginal increase
same,"changes in whole blood NAD+ levels on-trial (Week 12-Week 0), Mean+SE",[3]; NR group,30 ± 20 µM
same,blood NAD+ levels during the up-titration period,"[3]; NR group, Week 0 to Week 4, maintained through Week 12",dose-dependent increase
same,whole blood NAD+ levels at 4 h post-dose vs pre-NR dose,"[3]; Week 4 visit, 1000 mg NR dose",unchanged
same,whole blood NR levels 4 h post-dose vs pre-dose,"[3]; Week 4 visit, 1000 mg NR dose",tended to increase; also recorded: rose significantly
same,whole blood NAD+ levels,"[3]; clinically-stable HF patients, NR treatment",doubled
same,concentration at 12 weeks,"[3]; human, whole blood, oral, 1000 mg twice daily, NR group, read-out: on-trial changes in whole blood NR levels (Week 12-Week 0), Mean±SE",2 nM
same,blood NR level before the daily dose was administered,"[3]; trough, throughout the study",low and variable
same,proinflammatory cytokine gene expressions,[4]; 4-hour 10 ng/mL LPS with 1 mM NR relative to LPS alone,reducing
same,proinflammatory cytokine gene expressions,[4]; 4-hour MitoDAMP with 1 mM NR relative to MitoDAMP only,reduction
same,whole blood NAD+ levels,[5],increases
same,reduction of proinflammatory cytokine gene expressions,[6],up to 30 fold
same,adverse effect associated with NR,[7],No adverse effect
